Results on two molecules are retold here after patent US20180201647A1, “Peptoid” (The University of Durham, priority 2015, published 2018).

Where a SMILES comes first, the peptide text is derived from it. [ ]: non-standard residue; d: D form. Nspe = C[C@H](NCC(=O)O)c1ccccc1; NhArg = N=C(N)NCCCCNCC(=O)O; Nlys = NCCCCNCC(=O)O

Holding throughout (assay type): cell-based
In test [1] the test system is E. coli (ATCC 29522) biofilm. The test is described as follows: Single species biofilm treatment, crystal violet assay. The note with it: 100 μM peptoid, 24 hours, FIG. 17C. As to the method:
(§1) C. albicans (NCTC 3179) was subcultured aerobically on Sabouraud agar plates and propagated in yeast peptone dextrose broth. E. coli (ATCC 29522) and S. aureus (NCTC 6571) were grown on blood agar plates and propagated in brain heart infusion (BHI) broth.
(§2) Overnight cultures of C. albicans were washed and resuspended in a modified RPMI-1640 (Sigma-Aldrich, St Louis, USA) medium to yield an inoculum of 1.0×10^6 cells/ml. Overnight cultures of S. aureus or E. coli were washed and resuspended in brain heart infusion broth (Oxoid, Basingstoke, UK) to yield an inoculum of 5.0×10^6 cells/ml. A total volume of 100 μl of each inoculum was added to microtitre plate wells (Thermo Fisher Scientific, Roskilde, Denmark). An initial biofilm was allowed to form for 4 hours. Wells were washed three times with 200 μl PBS to facilitate removal of planktonic cells and the biofilms were then treated with 100 μM of peptoids 1-4 in the appropriate broth. Plates were incubated for a further 24 hours to allow biofilm maturation. After removal of planktonic cells by washing, biofilms were quantified by the crystal violet assay or by PMA-qPCR.
(§3) Biofilm quantification by crystal violet assay Washed biofilms were fixed with 100 μl methanol for 10 minutes. Following removal of methanol, the wells were air dried and stained with crystal violet solution (Clin-Tech Ltd, Guildford, UK) for 20 minutes at room temperature. Excess stain was removed by washing, the plate was then air dried and bound crystal violet was re-solubilised in 16 μl 33% acetic acid prior to reading at 570 nm in a microtitre plate reader (Tecan GENios, Ziirich, Switzerland).

Test [2] has as its system Leishmania mexicana (M379). The note with it: for IC50: parasite stage not given, read-out: IC50 L. mexicana; for active against L. mexicana: statement in words. As to the method:
Leishmania mexicana (M379) promastigote parasites were maintained at 26° C. in Schneider's Insect medium (Sigma-Aldrich) supplemented with heat-inactivated foetal bovine sera (FBS, 15%; Biosera Ltd). Cells were counted using a Neubauer Improved Haemocytometer. Promastigotes were transformed into axenic amastigotes by a pH and temperature shift as previously described. A culture of recently transformed (three days) promastigotes in the late log phase was transferred into Schneider's Insect medium supplemented with 20% heat-inactivated FBS (pH 5.5) at 5×10^5 parasites/mL. After 6 days, the parasites were in the metacyclic stage and used for transformation to amastigote-like forms by transfer in the same medium at 32° C. at 5×10^5 parasites/mL. After additional 5-7 days, the parasites should be in the amastigote stage and be ready for cytotoxicity studies and infections.
Cytotoxicity analyses were performed in 96-well plates (Costar, Fisher Scientific) using Alamar Blue (Invitrogen) for cell viability detection as previously described.
Promastigote and amastigote L. mexicana were pre-incubated with the compounds in triplicate (5 mM stock solutions in DMSO; Amphotericin B was used as a positive control; untreated parasites with DMSO as a negative control) in 50 μl of the corresponding media at 4×106 mL-1 for 1 hour. Afterwards, 40 μl were removed from each well before the addition of 90 μl of the corresponding media, followed by incubation for 24 hours at 4×105 mL-1. Then, 10 μl Alamar Blue solution (Invitrogen) was added to each well for an incubation of 4 hours prior to assessing cell viability using a fluorescent plate reader (Biotek; Ex 560 nm/Em 600 nm). To investigate the effects of serum on the efficacy of the peptoids, the assay described above was modified using serum-free medium for the pre-incubation time. For these assays, the parasites were washed three times in serum-free medium before adding them to the compound solutions. All of the experiments described above were carried out on a minimum of two separate occasions to ensure a robust data set was collected.

Test [3] relates to T. cruzi Tulahuen strain C2C4. The test is described as follows: microbe, parasite or virus in culture. The note with it: for IC50: in L-6 cells, 96 h, read-out: IC50 T. cruzi; for active against T. cruzi: statement in words. As to the method: Rat skeletal myoblasts (L-6 cells) were seeded in 96-well microtitre plates at 2000 cells/well in 100 μL RPMI 1640 medium with 10% FBS and 2 mM 1-glutamine. After 24 h the medium was removed and replaced by 100 μl per well containing 5000 trypomastigote forms of T. cruzi Tulahuen strain C2C4 containing the β-galactosidase (Lac Z) gene. After 48 h the medium was removed from the wells and replaced by 100 μl fresh medium with or without a serial drug dilution of eleven 3-fold dilution steps covering a range from 100 to 0.002 μg/ml. After 96 h of incubation the plates were inspected under an inverted microscope to assure growth of the controls and sterility. Then the substrate CPRG/Nonidet (50 μl) was added to all wells. A color reaction developed within 2-6 h and could be read photometrically at 540 nm. Data were analyzed with the graphic programme Softmax Pro (Molecular Devices), which calculated IC50 values by linear regression from the sigmoidal dose inhibition curves. Benznidazole is used as control (IC50 0.5+0.2 μg/ml).

Test [4] deals with S. aureus (NCTC 6571) biofilm. As to the kind of experiment: Single species biofilm treatment, crystal violet assay. The note with it: 100 μM peptoid, 24 hours, FIG. 17B. As to the method: as §1, §2, §3

As usually defined, the IC50 is the concentration that gives 50% inhibition. With `C[C@@H](c1ccccc1)N(CC(N)=O)C(=O)CN(C(=O)CN(CCCCN)C(=O)CN(C(=O)CN(C(=O)CN(CCCCNC(=N)N)C(=O)CN(C(=O)CN(C(=O)CN(CCCCN)C(=O)CN(C(=O)CN(C(=O)CNCCCCNC(=N)N)[C@@H](C)c1ccccc1)[C@@H](C)c1ccccc1)[C@@H](C)c1ccccc1)[C@@H](C)c1ccccc1)[C@@H](C)c1ccccc1)[C@@H](C)c1ccccc1)[C@@H](C)c1ccccc1` [Peptoid 4, [(NhArg-Nspe-Nspe)(NLys-Nspe-Nspe)]2] (H-[NhArg][Nspe][Nspe][Nlys][Nspe][Nspe][NhArg][Nspe][Nspe][Nlys][Nspe][Nspe]-NH2; N-terminus assumed), in test [1], the “activity against the E. coli biofilm” value is on record as “strongest anti-bacterial activity”. Also, in test [2], the IC50 turned out to be 37 µM and the “active against L. mexicana” value is reported as “active”. Besides, in test [3], the IC50 was 21.5 µM and the “active against T. cruzi” value is “active”.
`C[C@@H](c1ccccc1)N(CC(N)=O)C(=O)CN(C(=O)CN(CCCCNC(=N)N)C(=O)CN(C(=O)CN(C(=O)CN(CCCCNC(=N)N)C(=O)CN(C(=O)CN(C(=O)CN(CCCCN)C(=O)CN(C(=O)CN(C(=O)CNCCCCN)[C@@H](C)c1ccccc1)[C@@H](C)c1ccccc1)[C@@H](C)c1ccccc1)[C@@H](C)c1ccccc1)[C@@H](C)c1ccccc1)[C@@H](C)c1ccccc1)[C@@H](C)c1ccccc1` [Peptoid 1, (NLys-Nspe-Nspe)2(NhArg-Nspe-Nspe)2] (H-[Nlys][Nspe][Nspe][Nlys][Nspe][Nspe][NhArg][Nspe][Nspe][NhArg][Nspe][Nspe]-NH2; N-terminus assumed): the “activity against the S. aureus biofilm” value in test [4] is “strongest anti-bacterial activity”. For the same molecule, in test [2], the IC50 came out at 37 µM and the “active against L. mexicana” value is reported as “active”. In test [3], the IC50 came out at 12.3 µM and the “active against T. cruzi” value is reported as “active”.
